According to US8003695B2 (Chroma Therapeutics Ltd., priority 2006, dated 2011):

Molecular target: T1, IKBKB (IKKβ) (Homo sapiens, UniProt O14920)
T1 construct: purchased Invitrogen (Paisley, UK)
T1 sequence (O14920 1-756): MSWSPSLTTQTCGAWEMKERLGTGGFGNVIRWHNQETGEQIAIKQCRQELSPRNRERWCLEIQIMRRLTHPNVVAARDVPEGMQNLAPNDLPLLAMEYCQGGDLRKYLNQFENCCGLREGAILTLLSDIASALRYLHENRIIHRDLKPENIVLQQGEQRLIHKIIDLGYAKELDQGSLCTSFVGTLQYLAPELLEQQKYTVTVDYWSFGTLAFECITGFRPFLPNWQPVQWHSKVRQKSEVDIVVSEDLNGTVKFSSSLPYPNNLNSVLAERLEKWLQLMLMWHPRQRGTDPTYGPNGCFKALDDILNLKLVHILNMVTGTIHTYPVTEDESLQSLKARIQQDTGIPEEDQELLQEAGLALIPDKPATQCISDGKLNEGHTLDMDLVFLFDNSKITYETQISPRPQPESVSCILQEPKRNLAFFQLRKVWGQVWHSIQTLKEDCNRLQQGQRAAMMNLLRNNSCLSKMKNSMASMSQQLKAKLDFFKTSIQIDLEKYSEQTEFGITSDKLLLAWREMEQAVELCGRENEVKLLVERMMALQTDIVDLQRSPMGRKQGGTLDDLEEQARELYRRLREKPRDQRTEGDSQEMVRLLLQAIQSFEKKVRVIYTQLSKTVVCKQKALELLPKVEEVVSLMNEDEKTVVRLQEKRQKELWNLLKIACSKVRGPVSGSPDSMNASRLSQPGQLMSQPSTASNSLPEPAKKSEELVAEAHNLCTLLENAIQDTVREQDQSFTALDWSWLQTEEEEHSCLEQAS
Assay: IKKβ Enzyme Assay (Z'-LYTE, Invitrogen)
Assay type: biochemical
Details: ATP at or close to Km; read-out: Inhibitor activity versus IKKβ
Procedure: The ability of compounds to inhibit IKKβ kinase activity was measured in an assay performed by Invitrogen (Paisley, UK). The Z′-LYTE™ biochemical assay employs a fluorescence-based, coupled-enzyme format and is based on the differential sensitivity of phosphorylated and non-phosphorylated peptides to proteolytic cleavage. The peptide substrate is labelled with two fluorophores—one at each end—that make up a FRET pair. In the primary reaction, the kinase transfers the gamma-phosphate of ATP to a single serine or threonine residue in a synthetic FRET-peptide. In the secondary reaction, a site-specific protease recognizes and cleaves non-phosphorylated FRET-peptides. Phosphorylation of FRET-peptides suppresses cleavage by the Development Reagent. Cleavage disrupts FRET between the donor (i.e., coumarin) and acceptor (i.e. fluorescein) fluorophores on the FRET-peptide, whereas uncleaved, phosphorylated FRET-peptides maintain FRET. A […] method, which calculates the ratio (the Emission Ratio) of donor emission to acceptor emission after excitation of the donor fluorophore at 400 nm, is used to quantitate reaction progress.
The final 10 μL Kinase Reaction consists of 0.9-8.0 ng IKBKB (IKKβ), 2 μM Ser/Thr 05 Peptide and ATP in 50 mM HEPES pH 7.5, 0.01% BRIJ-35, 10 mM MgCl2, 1 mM EGTA. The assay is performed at an ATP concentration at, or close to the Km. After the 60 minute Kinase Reaction incubation at room temperature, 5 μL of a 1:128 dilution of Development Reagent is added. The assay plate is incubated for a further 60 minutes at room temperature and read on a fluorescence plate reader.
Duplicate data points are generated from a ⅓ log dilution series of a stock solution of test compound in DMSO. Nine dilutions steps are made from a top concentration of 10 μM, and a ‘no compound’ blank is included. Data is collected and analysed using XLfit software from IDBS. The dose response curve is curve fitted to model number 205 (sigmoidal dose-response model). From the curve generated, the concentration giving 50% inhibition is determined and reported.

IC50, < 1000 nM:
NC(=O)Nc1sc(-c2ccc(CN[C@H](C(=O)O)c3ccccc3)cc2)cc1C(N)=O [Example 50, (2S)-({4-[4-carbamoyl-5-(carbamoylamino)-2-thienyl]benzyl}amino)(phenyl)acetic acid]
CC(C)C[C@H](NCc1ccc(-c2cc(C(N)=O)c(NC(N)=O)s2)cc1)C(=O)O [Example 51, N-{4-[4-Carbamoyl-5-(carbamoylamino)-2-thienyl]benzyl}-L-leucine]
NC(=O)Nc1sc(-c2ccc(CN[C@@H](Cc3ccccc3)C(=O)O)cc2)cc1C(N)=O [Example 52, N-{-4-[4-Carbamoyl-5-(carbamoylamino)-2-thienyl]benzyl}-L-phenylalanine]
NC(=O)Nc1sc(-c2ccc(CN[C@@H](C(=O)O)c3ccccc3)cc2)cc1C(N)=O [Example 53, (2R)-({-4-[4-Carbamoyl-5-(carbamoylamino)-2-thienyl]benzyl}amino)(phenyl)acetic acid]
NC(=O)Nc1sc(-c2ccc(CN[C@H](C(=O)O)c3ccc4ccccc4c3)cc2)cc1C(N)=O [Example 54, (2S)-({-4-[4-Carbamoyl-5-(carbamoylamino)-2-thienyl]benzyl}amino)(2-naphthyl)acetic acid]
CC(C)C[C@H](NCc1ccc(-c2cc(C(N)=O)c(NC(N)=O)s2)c(Cl)c1)C(=O)O [Example 55, N{4-[4-carbamoyl-5-(carbamoylamino)-2-thienyl]-3-chlorobenzyl}-L-leucine]
Cc1cc(-c2cc(C(N)=O)c(NC(N)=O)s2)ccc1CN[C@@H](CC(C)C)C(=O)O [Example 56, N-{4-[4-carbamoyl-5-(carbamoylamino)-2-thienyl]-2-methylbenzyl}-L-leucine]
CC(C)C[C@H](NCc1cccc(-c2cc(C(N)=O)c(NC(N)=O)s2)c1)C(=O)O [Example 57, N-{3-[4-Carbamoyl-5-(carbamoylamino)-2-thienyl]benzyl}-L-leucine]
NC(=O)Nc1sc(-c2cccc(CN[C@H](C(=O)O)c3ccccc3)c2)cc1C(N)=O [Example 58, (2S)-({3-[4-carbamoyl-5-(carbamoylamino)-2-thienyl]benzyl}amino)(phenyl)acetic acid]
NC(=O)Nc1sc(-c2cccc(CN[C@H](C(=O)O)C3CCCCC3)c2)cc1C(N)=O [Example 59, (2S)-({3-[4-carbamoyl-5-(carbamoylamino)-2-thienyl]benzyl}amino)(cyclohexyl)acetic acid]
CC(C)(C)OC[C@H](NCc1cccc(-c2cc(C(N)=O)c(NC(N)=O)s2)c1)C(=O)O [Example 60, O-tert-butyl-N-{3-[4-carbamoyl-5-(carbamoylamino)thiophen-2-yl]benzyl}-L-serine]
C[C@@H](O)[C@H](NCc1cccc(-c2cc(C(N)=O)c(NC(N)=O)s2)c1)C(=O)O [Example 61, N-{3-[4-carbamoyl-5-(carbamoylamino)thiophen-2-yl]benzyl}-L-threonine]
CC(C)C[C@H](NCCc1ccc(-c2cc(C(N)=O)c(NC(N)=O)s2)cc1)C(=O)O [Example 63]
CC(C)C[C@H](NCCc1ccc(-c2cc(C(N)=O)c(NC(N)=O)s2)c(Cl)c1)C(=O)O [Example 64, N-(2-{-4-[4-Carbamoyl-5-(carbamoylamino)-2-thienyl]-3-chlorophenyl}ethyl)-L-leucine]
CC(C)C[C@H](NCCCOc1ccc(-c2cc(C(N)=O)c(NC(N)=O)s2)cc1)C(=O)O [Example 65, N-(3-{4-[4-Carbamoyl-5-(carbamoylamino)-2-thienyl]phenoxy}propyl)-L-leucine]
CC(C)C[C@H](NCCCOc1ccc(-c2cc(C(N)=O)c(NC(N)=O)s2)c(Cl)c1)C(=O)O [Example 66, N-(3-{4-[4-Carbamoyl-5-(carbamoylamino)-2-thienyl]-3-chlorophenoxy}propyl)-L-leucine]
CC(C)C[C@H](NCCCCCOc1ccc(-c2cc(C(N)=O)c(NC(N)=O)s2)cc1)C(=O)O [Example 67]
CC(C)C[C@H](NCCCCCOc1ccc(-c2cc(C(N)=O)c(NC(N)=O)s2)c(Cl)c1)C(=O)O [Example 68, N-(5-{4-[4-Carbamoyl-5-(carbamoylamino)-2-thienyl]-3-chlorophenoxy}pentyl)-L-leucine]
CC(C)C[C@H](NC/C=C/c1ccc(-c2cc(C(N)=O)c(NC(N)=O)s2)cc1)C(=O)O [Example 69, N-[(2E)-3-{4-[4-Carbamoyl-5-(carbamoylamino)-2-thienyl]phenyl}prop-2-en-1-yl]-L-leucine]
Cc1cc(-c2cc(C(N)=O)c(NC(N)=O)s2)ccc1/C=C/CN[C@@H](CC(C)C)C(=O)O [Example 70, N-[(2E)-3-{4-[4-carbamoyl-5-(carbamoylamino)thiophen-2-yl]-2-methylphenyl}prop-2-en-1-yl]-L-leucine]
CC(C)C[C@H](NC/C=C/c1ccc(-c2cc(C(N)=O)c(NC(N)=O)s2)cc1F)C(=O)O [Example 71, N-[(2E)-3-{4-[4-carbamoyl-5-(carbamoylamino)thiophen-2-yl]-2-fluorophenyl}prop-2-en-1-yl]-L-leucine]
CC(C)C[C@H](NC/C=C/c1ccc(-c2cc(C(N)=O)c(NC(N)=O)s2)cc1Cl)C(=O)O [Example 72, N-[(2E)-3-{4-[4-carbamoyl-5-(carbamoylamino)thiophen-2-yl]-2-chlorophenyl}prop-2-en-1-yl]-L-leucine]
Cc1cc(/C=C/CN[C@@H](CC(C)C)C(=O)O)ccc1-c1cc(C(N)=O)c(NC(N)=O)s1 [Example 73, N-[(2E)-3-{4-[4-carbamoyl-5-(carbamoylamino)thiophen-2-yl]-3-methylphenyl}prop-2-en-1-yl]-L-leucine]
CC(C)C[C@H](NC/C=C/c1ccc(-c2cc(C(N)=O)c(NC(N)=O)s2)c(F)c1)C(=O)O [Example 74, N-[(2E)-3-{4-[4-carbamoyl-5-(carbamoylamino)thiophen-2-yl]-3-fluorophenyl}prop-2-en-1-yl]-L-leucine]
CC(C)C[C@H](NC/C=C/c1ccc(-c2cc(C(N)=O)c(NC(N)=O)s2)c(Cl)c1)C(=O)O [Example 75, N-[(2E)-3-{4-[4-carbamoyl-5-(carbamoylamino)thiophen-2-yl]-3-chlorophenyl}prop-2-en-1-yl]-L-leucine]
CC(C)C[C@H](NC/C=C/c1ccc(-c2cc(C(N)=O)c(NC(N)=O)s2)cc1C(F)(F)F)C(=O)O [Example 76, N-[(2E)-3-{4-(4-carbamoyl-5-(carbamoylamino)thiophen-2-yl]-2-(trifluoromethyl)phenyl}prop-2-en-1-yl]-L-leucine]
CC(C)C[C@H](NC/C=C/c1cc(F)c(-c2cc(C(N)=O)c(NC(N)=O)s2)cc1F)C(=O)O [Example 77, N-[(2E)-3-{4-[4-carbamoyl-5-(carbamoylamino)thiophen-2-yl]-2,5-difluorophenyl}prop-2-en-1-yl]-L-leucine]
